Reference: US9944721B2, “Polysialic acid and use for treatment of neurodegenerative and neuroinflammatory diseases” (RHEINISCHE FRIEDRICH-WILHELMS UNIVERSITÄT BONN, priority 2013, dated 2018)

Assays:
Format in all cases: cell-based
[1] = test system: human microglial line derived from induced pluripotent stem cells (expressing Siglec-11); assay: MTT cell viability of human microglia treated with sialic acid forms; conditions: for metabolic activity of the microglial cells (MTT, normalized to cell number): 24 hours treatment, 0.15 μM, 0.5 μM and 1.5 μM, FIG. 2B; for Intact viability of human microglia: summary of Example 3, MTT, 24 hours
Method: A human microglial line derived from induced pluripotent stem cells as described in WO 2010/125110 was used to study the effect of sialic acid forms with different chain length. Human microglial cells were cultured on 5 μg/ml poly-L-lysin (PLL, Sigma)-coated dishes in N2-medium containing DMEM/F12 culture medium (Gibco) supplemented with 1% N2 (Invitrogen), 0.48 mM L-glutamine (Gibco) and optionally 100 μg/ml penicillin/streptomycin (Gibco). Cells were cultured with high density and splitted 1:2 when required.
The effect of different length and fractions of oligosialic acids and polysialic acids on the human microglial lines were analyzed by determination of cell viability normalized to the cell number and after treatment with monomeric sialic acid (SA, molecular weight of 0.3 kDa, Nacalai Tesque ING, Japan) and sialic acids consisting of 3 monomers (Tri-SA; molecular weight of 0.9 kDa, Nacalai Tesque ING, Japan) and sialic acids consisting of 6 monomers (Hexa-SA; molecular weight of 1.9 kDa, Nacalai Tesque ING, Japan), PSA with a number of sialic acid monomers between 14 and 26 (PSA-20; low molecular weight of PSA between 4.3 and 8 kDa for >90% of the substance) and PSA with a length between 46 and 110 of sialic acid monomers (PSA-60; medium molecular weight of PSA between 14.2 and 34 kDa for >90% of the substance).
The microglial cells were cultured in medium as described above and treated in culture with the different sialic acid forms.
Cell viability was determined by the MTT (3-(4,5-Dimethylthiazol-2-yl)-2,5-diphenyltetrazolium bromide, Millipore) assay after 24 hours treatment with distinct sialic acid forms with different chain length and normalized to the cell number. The light absorbance of the purple formazan in living cells was determined by a spectrophotometer at a wavelength of 570 nm (Perkin Elmer, Envision Multiplate Reader).

[2] = test system: LPS-activated human microglia; assay: LPS-induced TNF-alpha gene transcription in human microglia (qRT-PCR); conditions: LPS 1 μg/ml, 24 hours; for LPS-induced gene transcription of TNF-alpha: 0.15 μM, 0.5 μM and 1.5 μM, FIG. 3; for Anti-inflammatory effect on TNF-alpha of LPS-activated human microglia: summary of Example 4
Method: To analyse whether polysialic acid might interfere with a pro-inflammatory phenotype of human microglia, cultured human microglia were activated with lipopolysaccharides (LPS) and the effect of the distinct sialic acid forms including fractions of oligosialic and polysialic acid on the gene transcription of the pro-inflammatory cytokine tumor necrosis factor-alpha induced by the bacterial toxin LPS was determined. A human microglial line derived from induced pluripotent stem cells as described in WO 2010/125110 was used to study the effect of sialic acid forms with different chain length. Human microglial cells were cultured on 5 μg/ml poly-L-lysin (PLL, Sigma)-coated dishes in N2-medium containing DMEM/F12 culture medium (Gibco) supplemented with 1% N2 (Invitrogen), 0.48 mM L-glutamine (Gibco) and optionally 100 μg/ml penicillin/streptomycin (Gibco). Cells were cultured with high density and splitted 1:2 when required. The human induced pluripotent stem cell derived microglia line was treated with lipopolysaccharides (LPS, 1 μg/ml, Invivogen) and sialic acid forms with different chain length for 24 hours. Gene transcripts for tumor necrosis factor-α (TNF-alpha) were determined by quantitative RT-PCR and normalized to GAPDH. In detail, RNA isolation was performed using RNeasy Mini Kit (Qiagen) and transcription with the SuperScript First-Strand Synthesis System (Invitrogen). Quantitative RT-PCR with specific oligonucleotides (GAPDH: […] (SEQ ID NO: 1) and […] (SEQ ID NO: 2); TNFα: […] (SEQ ID NO: 3) and […] (SEQ ID NO: 4)) was performed using SYBR green PCR Master Mix with the Mastercycler epgradients S (Eppendorf). Results were normalized to GAPDH. Quantification using the delta-CT method was carried out.

human microglial cells = assay: Phagocytosis associated oxidative burst: neural debris triggered superoxide release (DHE); conditions: control experiment; 40 μM Trolox or 20 μg/ml SOD1
Method: To measure the relative production of superoxide by the microglial cells, human microglial cells were plated in 4-chamber culture dishes. After 24 hours cells were treated with 5 mg/ml neural debris for 15 minutes with or without 1 hour PSA-20 pre-incubation at concentrations of 0.15 μM, 0.5 μM or 1.5 μM. Then, cells were washed 2-times with Krebs-HEPES-buffer. To detect the release of superoxide the cells were afterwards incubated for 15 minutes with 30 μM superoxide-sensitive fluorescent dye dihydroethidium (DHE) solution diluted in Krebs-HEPES-buffer. Finally cells were washed 2-times with Krebs-HEPES-buffer and fixed for 15 minutes with 0.25% glutaraldehyde and 4% PFA. In total, six images were randomly collected per experimental group by confocal laser scanning microscopy (Fluoview 1000, Olympus). All cells of the collected images were analyzed by Image J software (NIH).
To confirm the effect, Trolox as scavenger of superoxide and superoxide dismutase-1 (SOD1) as modifier of superoxide were used in a control experiment as described above using 1.5 μM of PSA-20 but adding either 40 μM Trolox or 20 μg/ml (SOD1) into the medium. […] As can be taken from the FIG. 9C, the radical scavenger Trolox and the superoxide dismutase SOD1 neutralized the neural debris triggered superoxide release and as controls confirmed that DHE detected an extracellular production of superoxide.

[3] = test system: human microglial cells stimulated with fibrillary amyloid-β1-42; assay: Amyloid-β1-42 induced superoxide release of human microglia (DHE); conditions: repeat, FIG. 4B; PSA-20 1.5 μM; Trolox 40 μM; SOD1 20 μg/ml; Aβ 10 μM
Method: The human microglial cell line was treated with human Alzheimer's disease associated fibrillary amyloid-beta peptide (Aβ) to mimic inflammatory signalling of Alzheimer's disease brain tissue. To obtain fibrillary components of Aβ, the synthetic amyloid-beta peptide (amyloid-beta 1-42, Bachem/Brucker, 10 μM) was preincubated at 37° C. for at least three days. The human microglial cells were treated with the different concentrations of 0.15 μM, 0.5 μM, or 1.5 μM of low molecular weight polysialic acid (PSA-20) for 60 minutes followed by incubation for 15 minutes with fibrillary Aβ. Then, 30 μM dihydroethidium (DHE) was added and incubated at 37° C. for 15 minutes for measurement of superoxide anion radical production. Cells were fixed with 4% paraformaldehyde plus 0.25% glutaraldehyde and analyzed by confocal microscopy. For the quantification of DHE staining intensity six pictures of each experiment were obtained and analyzed by ImageJ software (NIH). The background was subtracted and the mean values of the staining intensities were compared. Cells were fixed and the intensity of DHE was quantified by confocal microscopy.
To confirm the specificity of the DHE measurement, the determination of the effect of PSA-20 on superoxide production in human microglial cells was repeated. As a control the radical scavenger Trolox, a water-soluble vitamin E analogue, was added to the system. Furthermore, as additional control superoxide dismutase-1 (SOD1) was added into the medium. Superoxide should no longer be detectable by the DHE dye after successful transformation of superoxide by SOD1.
Human microglial cells were cultured alone and production of reactive oxygen species was analyzed after treatment with the Alzheimer's disease plaques associated fibrillary amyloid-β1-42. To measure the relative production of superoxide by the microglial cells, cells were plated in 4-chamber culture dishes. After 24 hours human microglial cells were treated with 1.5 μM of low molecular weight polysialic acid (PSA-20) for 60 minutes followed by incubation for 15 minutes with 10 μM fibrillary amyloid-β1-42. Control dishes were treated with either 1.5 μM PSA-20 and 40 μM Trolox or 1.5 μM PSA-20 and 20 μg/ml superoxide dismutase-1 (SOD1, Serva). Then, cells were washed 2-times with Krebs-HEPES-buffer and afterwards incubated for 15 minutes with 30 μM DHE solution (diluted in Krebs-HEPES-buffer). Finally cells were washed 2-times with Krebs-HEPES-buffer and fixed for 15 minutes with 0.25% glutaraldehyde and 4% PFA. In total, six images were randomly collected per experimental group by confocal laser scanning microscopy (Fluoview 1000, Olympus). All cells of the collected images were analyzed by Image J software (NIH).

Row | Molecule | metabolic activity of the microglial cells (MTT, normalized to cell number) [1] | Intact viability of human microglia [1] | LPS-induced gene transcription of TNF-alpha [2] | Anti-inflammatory effect on TNF-alpha of LPS-activated human microglia [2] | neural debris triggered superoxide release (human microglial cells) | amyloid-β1-42 induced stimulation of the superoxide production [3]
1 | α2.8-polysialic acid [PSA-180] | significantly reduced | No | no significant anti-inflammatory effect | No | – | –
2 | SOD1: superoxide dismutase-1 (Serva), added to the medium as a control | – | – | – | – | neutralized | neutralized
3 | CC(=O)N[C@H]1[C@H]([C@H](O)[C@H](O)CO)OC(O)(C(=O)O)C[C@@H]1O (stereo partly drawn) [SA, N-acetylneuraminic acid] | did not affect the metabolic activity | Yes | did not significantly change | No | – | –
4 | Cc1c(C)c2c(c(C)c1O)CCC(C)(C(=O)O)O2 (stereo not drawn) [Trolox, 6-hydroxy-2,5,7,8-tetramethylchroman-2-carboxylic acid, reference compound] | – | – | – | – | neutralized | scavenged
